Measured values published in PMC6566410, “Novel Diamide-Based Benzenesulfonamides as Selective Carbonic Anhydrase IX Inhibitors Endowed with Antitumor Activity: Synthesis, Biological Evaluation and In Silico Insights” (International Journal of Molecular Sciences, 2019).

Columns and labels:
hCA IX = hCA IX (Homo sapiens, UniProt Q16790); experiment: stopped-flow CO2 hydrase assay; conditions: for Selectivity ratio I/IX: KI hCA I / KI hCA IX; for Selectivity ratio II/IX: KI hCA II / KI hCA IX
Text: (§3) An Applied Photophysics stopped-flow instrument was used for assaying the CA catalysed CO2 hydration activity, as reported earlier [17]. The inhibition constants were obtained by non-linear least-squares methods using PRISM 3 and the Cheng-Prusoff equation as reported earlier, and represent the mean from at least three different determinations. The four tested CA isofoms were recombinant ones obtained in-house as reported earlier [26, 27, 28, 29].

[1] = test system: panel of sixty cancer cell lines; experiment: NCI one-dose SRB assay, whole panel; assay type: cell-based; conditions: Homo sapiens, mean over the panel, 1.00E-5 Molar, read-out: Mean Growth Percent
Experimental: (§1) First, all diamide-based benzenesulfonamides herein reported 5a–h were screened for their antitumor activity at one dose (10^−5 M) assay against a panel of sixty cancer cell lines through the National Cancer Institute (NCI) Developmental Therapeutic Program (www.dtp.nci.nih.gov), according to US-NCI protocol. The cell growth and cell viability were evaluated using the sulforhodamine B (SRB) colorimetric assay.
(§2) This assay was carried out according to the protocol of the Drug Evaluation Branch, NCI, Bethesda. The cell growth and cell viability were evaluated using the sulforhodamine B (SRB) colorimetric assay, as reported earlier.

hCA I = hCA I (Homo sapiens, UniProt P00915); experiment: stopped-flow CO2 hydrase assay
Text: as §3

hCA II = hCA II (Homo sapiens, UniProt P00918); experiment: stopped-flow CO2 hydrase assay
Text: as §3

786-0 = experiment: NCI one-dose SRB assay; assay type: cell-based; conditions: Homo sapiens, 786-0 (Renal Cancer), 1.00E-5 Molar, read-out: Growth Percent
Experimental: as §1, §2

SF-539 = experiment: NCI one-dose SRB assay; assay type: cell-based; conditions: Homo sapiens, SF-539 (CNS Cancer), 1.00E-5 Molar, read-out: Growth Percent
Experimental: as §1, §2

NCI-H522 = experiment: NCI one-dose SRB assay; assay type: cell-based; conditions: Homo sapiens, NCI-H522 (Non-Small Cell Lung Cancer), 1.00E-5 Molar, read-out: Growth Percent
Experimental: as §1, §2

NCI-H460 = experiment: NCI one-dose SRB assay; assay type: cell-based; conditions: Homo sapiens, NCI-H460 (Non-Small Cell Lung Cancer), 1.00E-5 Molar, read-out: Growth Percent
Experimental: as §1, §2

NCI-H226 = experiment: NCI one-dose SRB assay; assay type: cell-based; conditions: Homo sapiens, NCI-H226 (Non-Small Cell Lung Cancer), 1.00E-5 Molar, read-out: Growth Percent
Experimental: as §1, §2

MALME-3M = experiment: NCI one-dose SRB assay; assay type: cell-based; conditions: Homo sapiens, MALME-3M (Melanoma), 1.00E-5 Molar, read-out: Growth Percent
Experimental: as §1, §2

U251 = experiment: NCI one-dose SRB assay; assay type: cell-based; conditions: Homo sapiens, U-251, U251 (CNS Cancer), 1.00E-5 Molar, read-out: Growth Percent
Experimental: as §1, §2

RPMI-8226 = experiment: NCI one-dose SRB assay; assay type: cell-based; conditions: Homo sapiens, RPMI-8226 (Leukemia), 1.00E-5 Molar, read-out: Growth Percent
Experimental: as §1, §2

HOP-62 = experiment: NCI one-dose SRB assay; assay type: cell-based; conditions: Homo sapiens, HOP-62 (Non-Small Cell Lung Cancer), 1.00E-5 Molar, read-out: Growth Percent
Experimental: as §1, §2

MDA-MB-468 = experiment: NCI one-dose SRB assay; assay type: cell-based; conditions: Homo sapiens, MDA-MB-468 (Breast Cancer), 1.00E-5 Molar, read-out: Growth Percent
Experimental: as §1, §2

NCI-H322M = experiment: NCI one-dose SRB assay; assay type: cell-based; conditions: Homo sapiens, NCI-H322M (Non-Small Cell Lung Cancer), 1.00E-5 Molar, read-out: Growth Percent
Experimental: as §1, §2

MDA-MB-231/ATCC = experiment: NCI one-dose SRB assay; assay type: cell-based; conditions: Homo sapiens, MDA-MB-231/ATCC (Breast Cancer), 1.00E-5 Molar, read-out: Growth Percent
Experimental: as §1, §2

ACHN = experiment: NCI one-dose SRB assay; assay type: cell-based; conditions: Homo sapiens, ACHN (Renal Cancer), 1.00E-5 Molar, read-out: Growth Percent
Experimental: as §1, §2

PC-3 = experiment: NCI one-dose SRB assay; assay type: cell-based; conditions: Homo sapiens, PC-3 (Prostate Cancer), 1.00E-5 Molar, read-out: Growth Percent
Experimental: as §1, §2

HL-60(TB) = experiment: NCI one-dose SRB assay; assay type: cell-based; conditions: Homo sapiens, HL-60(TB) (Leukemia), 1.00E-5 Molar, read-out: Growth Percent
Experimental: as §1, §2

HCT-15 = experiment: NCI one-dose SRB assay; assay type: cell-based; conditions: Homo sapiens, HCT-15 (Colon Cancer), 1.00E-5 Molar, read-out: Growth Percent
Experimental: as §1, §2

M14 = experiment: NCI one-dose SRB assay; assay type: cell-based; conditions: Homo sapiens, M14 (Melanoma), 1.00E-5 Molar, read-out: Growth Percent
Experimental: as §1, §2

SF-295 = experiment: NCI one-dose SRB assay; assay type: cell-based; conditions: Homo sapiens, SF-295 (CNS Cancer), 1.00E-5 Molar, read-out: Growth Percent
Experimental: as §1, §2

HCT-116 = experiment: NCI one-dose SRB assay; assay type: cell-based; conditions: Homo sapiens, HCT-116 (Colon Cancer), 1.00E-5 Molar, read-out: Growth Percent
Experimental: as §1, §2

T-47D = experiment: NCI one-dose SRB assay; assay type: cell-based; conditions: Homo sapiens, T47D, T-47D (Breast Cancer), 1.00E-5 Molar, read-out: Growth Percent
Experimental: as §1, §2

SF-268 = experiment: NCI one-dose SRB assay; assay type: cell-based; conditions: Homo sapiens, SF-268 (CNS Cancer), 1.00E-5 Molar, read-out: Growth Percent
Experimental: as §1, §2

COLO 205 = experiment: NCI one-dose SRB assay; assay type: cell-based; conditions: Homo sapiens, COLO 205 (Colon Cancer), 1.00E-5 Molar, read-out: Growth Percent
Experimental: as §1, §2

SK-OV-3 = experiment: NCI one-dose SRB assay; assay type: cell-based; conditions: Homo sapiens, SK-OV-3 (Ovarian Cancer), 1.00E-5 Molar, read-out: Growth Percent
Experimental: as §1, §2

MOLT-4 = experiment: NCI one-dose SRB assay; assay type: cell-based; conditions: Homo sapiens, MOLT-4 (Leukemia), 1.00E-5 Molar, read-out: Growth Percent
Experimental: as §1, §2

SK-MEL-5 = experiment: NCI one-dose SRB assay; assay type: cell-based; conditions: Homo sapiens, SK-MEL-5 (Melanoma), 1.00E-5 Molar, read-out: Growth Percent
Experimental: as §1, §2

DU-145 = experiment: NCI one-dose SRB assay; assay type: cell-based; conditions: Homo sapiens, DU-145 (Prostate Cancer), 1.00E-5 Molar, read-out: Growth Percent
Experimental: as §1, §2

Chain of hCA I (P00915 whole entry): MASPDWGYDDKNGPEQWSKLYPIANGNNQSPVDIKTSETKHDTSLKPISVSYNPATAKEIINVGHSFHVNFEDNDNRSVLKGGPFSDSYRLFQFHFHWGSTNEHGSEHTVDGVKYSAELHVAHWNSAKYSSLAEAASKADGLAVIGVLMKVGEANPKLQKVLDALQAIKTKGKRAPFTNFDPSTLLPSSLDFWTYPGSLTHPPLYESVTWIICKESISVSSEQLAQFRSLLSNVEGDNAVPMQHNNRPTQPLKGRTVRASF

COc1ccc(C=C(NC(=O)c2ccccc2)C(=O)Nc2ccc(S(N)(=O)=O)cc2)cc1OC [Compound 5g, N-(1-(3,4-Dimethoxyphenyl)-3-oxo-3-((4-sulfamoylphenyl)amino)prop-1-en-2-yl)benzamide]
Ki (hCA IX): 123 nM
Selectivity ratio I/IX (hCA IX): 17.9
Selectivity ratio II/IX (hCA IX): 3.6
activity at 10 µM [1]: 103%
Ki (hCA I): 2210 nM
Ki (hCA II): 448 nM
activity at 10 µM (786-0): 109%
activity at 10 µM (SF-539): 92.6%
activity at 10 µM (NCI-H522): 89.1%
activity at 10 µM (NCI-H460): 107%
activity at 10 µM (NCI-H226): 93.3%
activity at 10 µM (MALME-3M): 101%
activity at 10 µM (U251): 96.3%
activity at 10 µM (RPMI-8226): 107%
activity at 10 µM (HOP-62): 102%
activity at 10 µM (MDA-MB-468): 111%
activity at 10 µM (NCI-H322M): 110%
activity at 10 µM (MDA-MB-231/ATCC): 105%
activity at 10 µM (ACHN): 99.8%
activity at 10 µM (PC-3): 103%
activity at 10 µM (HL-60(TB)): 101%
activity at 10 µM (HCT-15): 101%
activity at 10 µM (M14): 113%
activity at 10 µM (SF-295): 102%
activity at 10 µM (HCT-116): 109%
activity at 10 µM (T-47D): 100%
activity at 10 µM (SF-268): 104%
activity at 10 µM (COLO 205): 110%
activity at 10 µM (SK-OV-3): 97.1%
activity at 10 µM (MOLT-4): 107%
activity at 10 µM (SK-MEL-5): 99.3%
activity at 10 µM (DU-145): 117%

COc1ccc(C=C(NC(=O)c2ccccc2)C(=O)Nc2ccc(S(N)(=O)=O)cc2)c(OC)c1 [Compound 5f, N-(1-(2,4-Dimethoxyphenyl)-3-oxo-3-((4-sulfamoylphenyl)amino)prop-1-en-2-yl)benzamide]
Ki (hCA IX): 73.7 nM
Selectivity ratio I/IX (hCA IX): 69.9
Selectivity ratio II/IX (hCA IX): 4
activity at 10 µM [1]: 103%
Ki (hCA I): 5130 nM
Ki (hCA II): 294 nM
activity at 10 µM (786-0): 103%
activity at 10 µM (SF-539): 98.2%
activity at 10 µM (NCI-H522): 88.2%
activity at 10 µM (NCI-H460): 109%
activity at 10 µM (NCI-H226): 98.4%
activity at 10 µM (MALME-3M): 104%
activity at 10 µM (U251): 100%
activity at 10 µM (RPMI-8226): 109%
activity at 10 µM (HOP-62): 117%
activity at 10 µM (MDA-MB-468): 74.8%
activity at 10 µM (NCI-H322M): 102%
activity at 10 µM (MDA-MB-231/ATCC): 105%
activity at 10 µM (ACHN): 103%
activity at 10 µM (PC-3): 96.3%
activity at 10 µM (HL-60(TB)): 103%
activity at 10 µM (HCT-15): 99.1%
activity at 10 µM (M14): 111%
activity at 10 µM (SF-295): 110%
activity at 10 µM (HCT-116): 104%
activity at 10 µM (T-47D): 101%
activity at 10 µM (SF-268): 114%
activity at 10 µM (COLO 205): 118%
activity at 10 µM (SK-OV-3): 101%
activity at 10 µM (MOLT-4): 114%
activity at 10 µM (SK-MEL-5): 102%
activity at 10 µM (DU-145): 111%
